Results: patent publication US20230085307A1, “PYRIDAZINONE COMPOUND AND HERBICIDE” (NISSAN CHEMICAL CORPORATION, priority 2019, published 2023)

Tested on: late watergrass
Experiment: Test Example 1: herbicidal activity, application before weed generation under submerged conditions (Table 16, symbol A)
Type: in vivo, late watergrass (Echinochloa oryzicola)
Details: 320 g/ha applied herbicide
How it was run: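 Alluvial soil was flooded to 4 cm depth, weed seeds were sown mixed and 2.5-leaf rice seedlings were transplanted. On sowing day, the compound's emulsion, diluted in water to a set dose, was applied to the water surface. Plants grew at 25–30 °C and were scored 0–5 after three weeks.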

SMILES | Herbicidal effect on A: late watergrass (grade 0-5)
Cc1nn(C)c(=O)c(-c2c(-c3ccc(S(C)(=O)=O)cc3)sc3ccc(F)cc23)c1O [2-258] | 5 (Herbicidal rate of 90% or more (almost completely withered))

Tested on: late watergrass
Experiment: Test Example 2: herbicidal activity, application during weed generation under submerged conditions (Table 17, symbol A)
Type: in vivo, late watergrass (Echinochloa oryzicola)
Details: AAH 320 g/ha; application during weed generation, submerged conditions
How it was run: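 Herbicide emulsion, diluted with water to the chosen amount, is applied onto 4 cm floodwater over alluvial soil where the weeds were co-sown and raised at 25–30° C. Application timing: 1–2 leaves. Assessment: three weeks afterwards.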

SMILES | herbicidal effect rating, A: late watergrass
Cc1nn(C)c(=O)c(-c2c(-c3ccc(S(C)(=O)=O)cc3)sc3ccc(F)cc23)c1O [2-258] | 4 (Herbicidal rate of 70% or more and less than 90%)

Tested on: barnyard grass
Experiment: Test Example 3: herbicidal effect by foliage application, Wagner pot (Table 18, symbol H)
Type: in vivo, barnyard grass (Echinochloa crus-galli)
Details: amount of applied herbicide 320 g/ha
How it was run: (§1)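 Plants were sown in alluvial soil held under 0.1–0.5 cm standing water and grown 14 days in a greenhouse at 25–30 °C. An emulsifiable formulation, water-diluted to the set dose, was then sprayed onto the foliage, and effects were scored three weeks later using previously defined criteria.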

SMILES | herbicidal effect on H: barnyard grass
Cc1nn(C)c(=O)c(-c2c(-c3ccc(S(C)(=O)=O)cc3)sc3ccc(F)cc23)c1O [2-258] | 5 (Herbicidal rate of 90% or more (almost completely withered))

Tested on: Chinese sprangletop
Experiment: Test Example 3: herbicidal effect by foliage application, Wagner pot (Table 18, symbol D)
Type: in vivo, chinese sprangletop (Leptochloa chinensis)
Details: amount of applied herbicide 320 g/ha
How it was run: as §1

SMILES | herbicidal effect on D: Chinese sprangletop
Cc1nn(C)c(=O)c(-c2c(-c3ccc(S(C)(=O)=O)cc3)sc3ccc(F)cc23)c1O [2-258] | 5 (Herbicidal rate of 90% or more (almost completely withered))

Tested on: southern crabgrass
Experiment: Test Example 4: herbicidal effect by soil treatment (Table 19, symbol F)
Type: in vivo, southern crabgrass (Digitaria ciliaris)
Details: amount of applied herbicide 320 g/ha
How it was run: (§2)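 Three weeks of greenhouse growth at 25° C. to 30° C. followed a uniform surface spray of water-diluted emulsion at a predetermined herbicide amount. Seeds had been sown beforehand under about 1.5 cm of sterilized diluvial soil. Grading followed criteria set out in an earlier test.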

SMILES | herbicidal effect on F: southern crabgrass
Cc1nn(C)c(=O)c(-c2c(-c3ccc(S(C)(=O)=O)cc3)sc3ccc(F)cc23)c1O [2-258] | 4 (Herbicidal rate of 70% or more and less than 90%)

Tested on: blackgrass
Experiment: Test Example 4: herbicidal effect by soil treatment (Table 19, symbol J)
Type: in vivo, blackgrass (Alopecurus myosuroides)
Details: amount of applied herbicide 320 g/ha
How it was run: as §2

SMILES | herbicidal effect on J: blackgrass
Cc1nn(C)c(=O)c(-c2c(-c3ccc(S(C)(=O)=O)cc3)sc3ccc(F)cc23)c1O [2-258] | 5 (Herbicidal rate of 90% or more (almost completely withered))

Tested on: Italian ryegrass
Experiment: Test Example 4: herbicidal effect by soil treatment (Table 19, symbol K)
Type: in vivo, Italian ryegrass (Lolium multiflorum)
Details: amount of applied herbicide 320 g/ha
How it was run: as §2

SMILES | herbicidal effect on K: Italian ryegrass
Cc1nn(C)c(=O)c(-c2c(-c3ccc(S(C)(=O)=O)cc3)sc3ccc(F)cc23)c1O [2-258] | 5 (Herbicidal rate of 90% or more (almost completely withered))

Tested on: windgrass
Experiment: Test Example 4: herbicidal effect by soil treatment (Table 19, symbol L)
Type: in vivo, windgrass (Apera spica-venti)
Details: amount of applied herbicide 320 g/ha
How it was run: as §2

SMILES | herbicidal effect on L: windgrass
Cc1nn(C)c(=O)c(-c2c(-c3ccc(S(C)(=O)=O)cc3)sc3ccc(F)cc23)c1O [2-258] | 4 (Herbicidal rate of 70% or more and less than 90%)

Tested on: velvetleaf
Experiment: Test Example 4: herbicidal effect by soil treatment (Table 19, symbol M)
Type: in vivo, velvetleaf (Abutilon theophrasti)
Details: amount of applied herbicide 320 g/ha
How it was run: as §2

SMILES | herbicidal effect on M: velvetleaf
Cc1nn(C)c(=O)c(-c2c(-c3ccc(S(C)(=O)=O)cc3)sc3ccc(F)cc23)c1O [2-258] | 3 (Herbicidal rate of 40% or more and less than 70%)

Tested on: lambsquarters
Experiment: Test Example 4: herbicidal effect by soil treatment (Table 19, symbol O)
Type: in vivo, lambsquarters (Chenopodium album)
Details: amount of applied herbicide 320 g/ha
How it was run: as §2

SMILES | herbicidal effect on O: lambsquarters
Cc1nn(C)c(=O)c(-c2c(-c3ccc(S(C)(=O)=O)cc3)sc3ccc(F)cc23)c1O [2-258] | 4 (Herbicidal rate of 70% or more and less than 90%)

Tested on: persian speedwell
Experiment: Test Example 4: herbicidal effect by soil treatment (Table 19, symbol R)
Type: in vivo, Persian speedwell (Veronica persica)
Details: amount of applied herbicide 320 g/ha
How it was run: as §2

SMILES | herbicidal effect on R: persian speedwell
Cc1nn(C)c(=O)c(-c2c(-c3ccc(S(C)(=O)=O)cc3)sc3ccc(F)cc23)c1O [2-258] | 5 (Herbicidal rate of 90% or more (almost completely withered))

Tested on: blackgrass
Experiment: Test Example 5: herbicidal effect by foliage application, plastic box (Table 20, symbol J)
Type: in vivo, blackgrass (Alopecurus myosuroides)
Details: foliage application, AAH 320 g/ha, evaluated three weeks after application
How it was run: (§3)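 Plants sown in sterilized diluvial soil and grown 14 days in a greenhouse at 25° C to 30° C, then sprayed on the foliage with the compound's emulsion diluted in water to a predetermined herbicide amount. Injury to weeds and crops scored three weeks after application on a visual rating scale.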

SMILES | J: blackgrass, herbicidal effect (criteria 0-5)
Cc1nn(C)c(=O)c(-c2c(-c3ccc(S(C)(=O)=O)cc3)sc3ccc(F)cc23)c1O [2-258] | 5 (Herbicidal rate of 90% or more (almost completely withered))

Tested on: Italian ryegrass
Experiment: Test Example 5: herbicidal effect by foliage application, plastic box (Table 20, symbol K)
Type: in vivo, Italian ryegrass (Lolium multiflorum)
Details: foliage application, AAH 320 g/ha, evaluated three weeks after application
How it was run: as §3

SMILES | K: Italian ryegrass, herbicidal effect (criteria 0-5)
Cc1nn(C)c(=O)c(-c2c(-c3ccc(S(C)(=O)=O)cc3)sc3ccc(F)cc23)c1O [2-258] | 5 (Herbicidal rate of 90% or more (almost completely withered))

Tested on: velvetleaf
Experiment: Test Example 5: herbicidal effect by foliage application, plastic box (Table 20, symbol M)
Type: in vivo, velvetleaf (Abutilon theophrasti)
Details: foliage application, AAH 320 g/ha, evaluated three weeks after application
How it was run: as §3

SMILES | M: velvetleaf, herbicidal effect (criteria 0-5)
Cc1nn(C)c(=O)c(-c2c(-c3ccc(S(C)(=O)=O)cc3)sc3ccc(F)cc23)c1O [2-258] | 5 (Herbicidal rate of 90% or more (almost completely withered))

Tested on: redroot pigweed
Experiment: Test Example 5: herbicidal effect by foliage application, plastic box (Table 20, symbol N)
Type: in vivo, redroot pigweed (Amaranthus retroflexus)
Details: foliage application, AAH 320 g/ha, evaluated three weeks after application
How it was run: as §3

SMILES | N: redroot pigweed, herbicidal effect (criteria 0-5)
Cc1nn(C)c(=O)c(-c2c(-c3ccc(S(C)(=O)=O)cc3)sc3ccc(F)cc23)c1O [2-258] | 5 (Herbicidal rate of 90% or more (almost completely withered))

Tested on: lambsquarters
Experiment: Test Example 5: herbicidal effect by foliage application, plastic box (Table 20, symbol O)
Type: in vivo, lambsquarters (Chenopodium album)
Details: foliage application, AAH 320 g/ha, evaluated three weeks after application
How it was run: as §3

SMILES | O: lambsquarters, herbicidal effect (criteria 0-5)
Cc1nn(C)c(=O)c(-c2c(-c3ccc(S(C)(=O)=O)cc3)sc3ccc(F)cc23)c1O [2-258] | 5 (Herbicidal rate of 90% or more (almost completely withered))
